Test results as given in ChEMBL document CHEMBL5729315, “Heterocyclylmethylidene derivatives and their use as modulators of mGluR5 receptors” (2022).

Experiments:
[1] = target: T1, Metabotropic glutamate receptor 5 (Homo sapiens, UniProt P41594); experiment: Radioligand Binding Assay at Cloned Human mGluR5 Receptor Subtype: Affinity at transmembrane glutamate metabotropic cloned human mGluR5 receptor was evaluated according to the methods of Anderson (Anderson et al., J Pharmacol. Exp. Ther., (2002), Vol. 303(3), pp. 1044-51), with some modifications. Human cloned mGluR5 was obtained by re-suspending CHO T-REx h-mGluR5 cells (50 μg/well) in 20 mM HEPES, 2 mM MgCl2, 2 mM CaCl2, pH 7.4, that then were incubated in a final volume of 1 ml for 60 min at 25° C. with 4 nM [3H]MPEP in the absence or presence of competing drugs. Non-specific binding was determined in the presence of 10 μM MPEP. The incubation was stopped by addition of cold Tris buffer pH 7.4 and rapid filtration through 0.2% polyethyleneimine pretreated Filtermat 1204-401 (Perkin Elmer) filters. The filters were then washed with cold buffer and the radioactivity retained on the filters was counted by liquid scintillation spectrometry (Betaplate 1204 BS-Wallac).
[2] = target: T1, Metabotropic glutamate receptor 5; experiment: Fold Shift of Agonist Curve Determination: The PAM potency was evaluated by performing an agonist concentration response curve in the presence of the compounds. The compounds at fixed concentration (0.01 or 0.1 or 1 μM) were applied 10 minutes before the incubation of the agonist (quisqualate or glutamate) dose-response curve. The fold shift was determined as ratio of EC50 agonist curves in presence and in absence of test compound.

T1 sequence (P41594 whole entry): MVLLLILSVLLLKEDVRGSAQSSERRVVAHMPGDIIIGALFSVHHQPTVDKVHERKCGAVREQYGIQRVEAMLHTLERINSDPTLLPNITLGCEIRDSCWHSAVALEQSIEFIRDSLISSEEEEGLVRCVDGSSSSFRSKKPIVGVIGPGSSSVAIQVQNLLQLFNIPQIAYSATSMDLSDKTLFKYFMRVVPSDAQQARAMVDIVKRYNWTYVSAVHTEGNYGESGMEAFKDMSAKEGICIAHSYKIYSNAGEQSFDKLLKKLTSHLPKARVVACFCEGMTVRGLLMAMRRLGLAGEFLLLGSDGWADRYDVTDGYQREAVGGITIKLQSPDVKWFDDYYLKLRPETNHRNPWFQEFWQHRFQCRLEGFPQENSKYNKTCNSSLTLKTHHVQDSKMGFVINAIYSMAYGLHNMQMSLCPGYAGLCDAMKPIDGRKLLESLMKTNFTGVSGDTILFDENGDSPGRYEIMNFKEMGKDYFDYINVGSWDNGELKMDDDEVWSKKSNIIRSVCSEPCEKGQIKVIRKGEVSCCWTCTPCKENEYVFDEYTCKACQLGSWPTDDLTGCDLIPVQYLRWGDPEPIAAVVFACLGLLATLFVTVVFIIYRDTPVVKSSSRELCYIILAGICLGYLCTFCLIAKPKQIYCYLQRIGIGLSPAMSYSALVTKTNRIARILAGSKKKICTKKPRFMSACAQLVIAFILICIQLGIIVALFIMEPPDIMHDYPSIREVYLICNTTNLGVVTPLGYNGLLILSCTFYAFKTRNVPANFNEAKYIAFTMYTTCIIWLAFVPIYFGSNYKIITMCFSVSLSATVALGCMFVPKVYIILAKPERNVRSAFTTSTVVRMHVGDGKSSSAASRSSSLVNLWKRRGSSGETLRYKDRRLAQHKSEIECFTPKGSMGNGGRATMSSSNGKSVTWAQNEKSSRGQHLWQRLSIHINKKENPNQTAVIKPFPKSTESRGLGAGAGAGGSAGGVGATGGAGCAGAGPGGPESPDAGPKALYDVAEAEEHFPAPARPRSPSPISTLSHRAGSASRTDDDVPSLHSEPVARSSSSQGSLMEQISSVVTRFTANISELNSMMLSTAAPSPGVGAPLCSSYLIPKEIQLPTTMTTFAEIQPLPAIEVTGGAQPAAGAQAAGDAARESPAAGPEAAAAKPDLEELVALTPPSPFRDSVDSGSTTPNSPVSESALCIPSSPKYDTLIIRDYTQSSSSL

Row | Ki [1] [nM] | EC50 [2] [nM] | SMILES
1 | 26.9 | – | Cc1cccc(C#CC=C2CC(C)(C)NC(C)(C)C2)n1
2 | 2.24 | 51.7 | COc1cc(OC)nc(C(=O)N2CC/C(=C\C#Cc3cccc(Cl)c3)C(C)(C)C2)n1
